Results on one compound are retold here after patent US20250057808A1, “COMPOSITION COMPRISING BETA LACTAM FOR TREATING ALCOHOL DEPENDENCE AND ALCOHOL ASSOCIATED DISEASES OR CONDITIONS” (Temple University of the Commonwealth System of Higher …, priority 2023, published 2025).

The data set is described as follows: Ethanol intake, preference, water intake and body weight in male and female P rats (section B). Format: in vivo, Male and female alcohol-preferring (P) rats. The settings on record: for Body weight / Ethanol consumption: 100 mg/kg; for Ethanol consumption / Ethanol preference / Water consumption: vs ethanol-saline group; for Ethanol preference / Water consumption: 100 mg/kg i.p.; for Ethanol preference: Day 1 through Day 5. On the procedure:
Male and female alcohol-preferring (P) rats were acquired from Indiana University School of Medicine, Indianapolis, IN at the age of 80-85 days. All animals were single housed in a room with temperature at 22° C. and 50% humidity in a 12 h light/dark cycle. Rats had free access to food and water throughout the experimental procedures. All the experimental procedures were approved by the University of Toledo Institutional Animal Care and Use Committee (IACUC) under IACUC protocol #400160.
At the age of 90-100 days, 5-7 male and female rats were assigned randomly to three groups: (1) Water-drinking (Water-Saline) group with no access to ethanol and served as a control group; (2) Ethanol-Saline group, which was exposed to continuous free-choice access to ethanol (15% and 30%, v/v, concurrently), and water for five weeks, and saline i.p. injections were performed from Days 1-5 on Week 6; and (3) Ethanol-MC-100093 group, which had continuous free-choice access to ethanol (15% and 30%, v/v), and water for five weeks, and MC-100093 i.p. injections were performed from Days 1-5 on Week 6. Ethanol and water intake were measured as g/kg/day. Rats were required to meet the criterion of an average ethanol consumption of 4 g/kg/day to be included in the study, for at least 2 weeks before saline vehicle or MC-100093 i.p. injections, as adopted in previous studies. Average ethanol and water consumptions throughout Week 5 served as a baseline. At Week 6 of the experiment, ethanol-MC-100093 group received MC-100093 at a dose of 100 mg/kg (i.p.) once daily for five days, and ethanol-saline and water-saline groups received saline vehicle as an i.p injection for five consecutive days. Water and ethanol were measured daily 24 hours after the first i.p. injections of saline or MC-100093 and 24 hours after the last i.p. injections of saline or MC-100093.
All statistical analyses were conducted using GraphPad Prism (10). Two-way (mixed) ANOVA followed by Bonferroni multiple comparison post-hoc test was performed to analyze daily ethanol intake, average daily water intake and body weight. One-way ANOVA followed by Newman-Keuls post hoc tests were used to analyze Western blot data. All statistical analyses data were reported as a p<0.05 of significance.
Ethanol preference was calculated as total ethanol consumption/total fluid consumption×100 from daily alcohol and water consumption.

[1] abbreviates: female P rats, 100 mg/kg i.p. 5 days.
Setting [2] is: male P rats, 100 mg/kg i.p. 5 days.

Entries after “also recorded” stand apart in the source; their conditions may differ.

With `C[C@@H](O)[C@H]1C(=O)N[C@@H]1[C@@H](C)C(=O)N1CCN(C)CC1` [MC-100093], under “100 mg/kg i.p. 5 days”, the “Attenuation effect on ethanol consumption, male compared with female P rats” value is “higher attenuation effect on ethanol consumption in male P rats exceeding female P rats”. Further, the Body weight entry runs as follows: under setting [1], “no significant effect on body weights; also recorded: no effect on the body weight”; under setting [2], “no significant effect on body weights; also recorded: no effect on the body weight”. The Ethanol consumption entry runs as follows: under setting [1], “reduced ethanol consumption in both male and female P rats from Day 1-5; also recorded: significant decrease in ethanol consumption from Day 1 through Day 5; also recorded: decreased ethanol consumption in male and female P rats”; under setting [2], “reduced ethanol consumption in both male and female P rats from Day 1-5; also recorded: significant decrease in ethanol consumption from Day 1 through Day 5; also recorded: decreased ethanol consumption in male and female P rats”. The Ethanol preference result is, setting by setting: (female P rats) “significant decrease in percent ethanol preference”; (male P rats) “significant decrease in percent ethanol preference”. Also, the Water consumption result (female P rats) was “significant increase in water consumption from Day 1 through Day 5” and the Water consumption result (male P rats) is “significant increase in water consumption from treatment Day 1 through Day 5”.
